# In patent US20230285405A1, “Pharmaceuticals for Treating or Preventing Nidoviruses and Picornaviruses” (priority 2020, published 2023):
# Like-named read-outs stand apart in the source and are kept apart here.
# Columns and labels:
# OC43 [1] = assay: Drug screening: OC43 nucleoprotein staining in infected A549-mRuby cells; assay type: cell-based, human beta coronavirus OC43; conditions: for activity at 10 µM: Betacoronavirus 1, OC43, 96 h
# How it was run: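 Repurposing screen: drugs at 10 μM final added 1 h after OC43 infection (MOI 0.3) of H2B-mRuby A549 cells, 4-day incubation at 33° C. Cell counts imaged at day 0 and day 4; nucleoprotein staining per cell normalized to untreated infected wells, hit threshold >3 SD in duplicate screens, non-toxic.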
# A549-mRuby cells = assay: Drug screening: effect on cell growth (cell number day 4 / day 0); conditions: 10 μM drug; for Growth_1: number of cells at day 4 divided by number of cells at day 0 / toxic_1: repeat #1; for Growth_2: number of cells at day 4 divided by number of cells at day 0 / toxic_2: repeat #2
# How it was run: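 Growth was scored as day 4/day 0 cell count from images of OC43-infected (MOI 0.3) A549-mRuby nuclear-reporter cells. Compounds were added at 10 μM final after a 1 h infection at 33° C, followed by 4 days of culture at 33° C in two independent screens.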
# OC43 [2] = assay: Dose-response analysis of OC43 infection; assay type: cell-based, human beta coronavirus OC43
# Description: Dose-response analysis of OC43 infection was done similarly to the drug screening, except cells were seeded at a concentration of 5,000 cells per well and the media contained 2% BCS instead of 10% BCS. OC43 staining was performed 2 days after infection and analyzed similarly to what was described for the drug screening. A sigmoid fit was used to extract EC50 values using Matlab.
# SARS-CoV-2 = assay: microbe, parasite or virus in culture; assay type: cell-based, SARS-CoV-2 (nCoV/Washington/1/2020)
# SARS-CoV-2 3CLpro = target: T1, SARS-CoV-2 3CLpro (Severe acute respiratory syndrome coronavirus 2, UniProt P0DTD1); assay type: cell-based
# T1 construct: the SARS-CoV-2 main protease (also known as 3CLpro, Mpro and nsp5); expressed in transfected cells; host or cells: 293T cells
# [3] = 10 μM drug, MOI 0.3, 4 days, OC43 staining normalized to no-drug controls, mean of the two screen repeats, read-out: OC43_mean
# [4] = 10 μM drug, MOI 0.3, 4 days, normalized to no-drug controls in the same plate, repeat #1, read-out: OC43_1: % staining of OC43 in screen repeat #1
# [5] = 10 μM drug, MOI 0.3, 4 days, normalized to no-drug controls in the same plate, repeat #2, read-out: OC43_2: % staining of OC43 in screen repeat #2
# [6] = Betacoronavirus 1, OC43, 48 h, read-out: EC50 OC43, A549-mRuby cells, staining 2 days after infection
# [7] = Severe acute respiratory syndrome coronavirus 2; read-out: EC50 SARS2
# [8] = 10 μM drug, MOI 0.3, 4 days, OC43 staining normalized to no-drug controls, mean of the two screen repeats
# [9] = 10 μM drug, MOI 0.3, 4 days, normalized to no-drug controls in the same plate, repeat #1
# [10] = 10 μM drug, MOI 0.3, 4 days, normalized to no-drug controls in the same plate, repeat #2
# [11] = Severe acute respiratory syndrome coronavirus 2, read-out: EC50 SARS2
# [12] = A549-mRuby cells, staining 2 days after infection, read-out: EC50 OC43
Molecule,"hit_1 (OC43 [1]; 10 μM drug, repeat #1)","hit_2 (OC43 [1]; 10 μM drug, repeat #2)",activity at 10 µM (OC43 [1]; [3]),activity at 10 µM (OC43 [1]; [4]),activity at 10 µM (OC43 [1]; [5]),Growth_1: number of cells at day 4 divided by number of cells at day 0 (A549-mRuby cells),toxic_1 (A549-mRuby cells),Growth_2: number of cells at day 4 divided by number of cells at day 0 (A549-mRuby cells),toxic_2 (A549-mRuby cells),EC50 (OC43 [2]; [6]),EC50 (SARS-CoV-2; [7]),3CLpro activity: percentage of GFP-expressing cells (in words) (SARS-CoV-2 3CLpro),other results
"COc1cc2c(Oc3ccc4[nH]c(C)cc4c3F)ncnc2cc1OCCCN1CCCC1 [Cediranib (AZD2171), Cediranib]",1,1,19%,17.8%,20.2%,2.6,0,2.4,0,0.52 µM,3.6 µM,–,"EC50 (OC43 [2]; read-out: EC50 OC43, A549-mRuby cells, staining 2 days after infection): 0.5 µM"
COc1ccc2cc1Oc1ccc(cc1)C[C@H]1c3c(cc4c(c3Oc3cc5c(cc3OC)CCN(C)[C@@H]5C2)OCO4)CCN1C [Cepharanthine],1,1,20.3%,28.5%,12.1%,4.3,0,4.7,0,0.77 µM,0.13 µM,–,–
Cc1nc2c([nH]1)CCN(C(=O)c1ccc(NC(=O)c3ccccc3-c3ccccc3)cc1)c1ccccc1-2.O [Conivaptan HCl],1,1,5.7%,4.5%,7%,4.2,0,4.7,0,4.6 µM,4 µM,statistically significant decrease,–
COC(=O)N[C@H](C(=O)N1CCC[C@H]1c1ncc(-c2ccc3c(c2)O[C@@H](c2ccccc2)n2c-3cc3cc(-c4cnc([C@@H]5CCCN5C(=O)[C@@H](NC(=O)OC)C(C)C)[nH]4)ccc32)[nH]1)C(C)C [Elbasvir],1,1,20.1%,18.8%,21.4%,4.7,0,5.3,0,0.17 µM,> 10 µM,–,inhibition of SARS-CoV-2 infection (in words) (SARS-CoV-2): did not inhibit SARS-CoV-2 infection
CS(=O)(=O)CCNCc1ccc(-c2ccc3ncnc(Nc4ccc(OCc5cccc(F)c5)c(Cl)c4)c3c2)o1 [Lapatinib],–,–,–,–,–,3.8,–,4.4,–,3.1 µM,–,statistically significant decrease,OC43_mean (OC43 [1]; [8]): 9.7%; OC43_1: % staining of OC43 in screen repeat #1 (OC43 [1]; [9]): 5.2%; OC43_2: % staining of OC43 in screen repeat #2 (OC43 [1]; [10]): 14.1%; EC50 (SARS-CoV-2; [11]): 1.6 µM
CCN(CCCCOC(=O)c1ccc(OC)c(OC)c1)C(C)Cc1ccc(OC)cc1.O (stereo not shown) [Mebeverine Hydrochloride],1,1,20%,20.1%,19.9%,5.2,0,3.9,0,5 µM,10 µM,–,–
CNCCC=C1c2ccccc2CCc2ccccc21.O [Nortriptyline hydrochloride],1,1,19.6%,25.2%,14%,4.2,0,3.1,0,7.5 µM,–,–,EC50 (SARS-CoV-2; [11]): 3.2 µM
CCN(CC)CCOCCOC(=O)C1(c2ccccc2)CCCC1.O=C(O)CC(O)(CC(=O)O)C(=O)O [Pentoxyverine Citrate],1,1,9.3%,10.8%,7.7%,5.0,0,5.7,0,5.5 µM,3.6 µM,–,–
CCCNCC(O)COc1ccccc1C(=O)CCc1ccccc1.O (stereo not shown) [Propafenone HCl],1,1,19.8%,20.4%,19.2%,4.7,–,3.4,–,7.3 µM,3.7 µM,–,–
O.O=C(c1ccc(OCCN2CCCCC2)cc1)c1c(-c2ccc(O)cc2)sc2cc(O)ccc12 [Raloxifene HCl],1,1,11.7%,9.4%,14%,5.0,0,5.2,0,2.7 µM,3.8 µM,–,–
O=C(O)CCC(=O)O.O=C(O[C@H]1CN2CCC1CC2)N1CCc2ccccc2[C@@H]1c1ccccc1 [Solifenacin succinate],1,1,–,–,–,5.0,0,5.0,0,–,3.6 µM,–,"activity at 10 µM (OC43 [1]; read-out: OC43_1: % staining of OC43 in screen repeat #1): 13%; activity at 10 µM (OC43 [1]; read-out: OC43_2: % staining of OC43 in screen repeat #2): 11.3%; activity at 10 µM (OC43 [1]; read-out: OC43_mean): 12.1%; EC50 (OC43 [2]; Betacoronavirus 1, OC43, 48 h, read-out: EC50 OC43): 4.8 µM"
N#Cc1ccc2[nH]cc(CCCCN3CCN(c4ccc5oc(C(N)=O)cc5c4)CC3)c2c1.O [Vilazodone HCl],1,1,9.8%,13%,6.7%,3.5,0,3.9,0,3.6 µM,4.5 µM,statistically significant decrease,–
Bafetinib [Bafetinib (INNO-406)],1,1,–,–,–,5.0,0,3.6,0,–,–,statistically significant decrease,OC43_mean (OC43 [1]; [8]): 13.4%; OC43_1: % staining of OC43 in screen repeat #1 (OC43 [1]; [9]): 17.2%; OC43_2: % staining of OC43 in screen repeat #2 (OC43 [1]; [10]): 9.6%; EC50 (OC43 [2]; [12]): 2.1 µM; EC50 (SARS-CoV-2; read-out: EC50 SARS2): 2.2 µM
Retapamulin,1,1,–,–,–,4.3,0,4.1,0,–,–,statistically significant decrease,OC43_mean (OC43 [1]): 12.2%; OC43_1: % staining of OC43 in screen repeat #1 (OC43 [1]; [9]): 11.7%; OC43_2: % staining of OC43 in screen repeat #2 (OC43 [1]; [10]): 12.6%; EC50 (OC43 [2]; [12]): 4.5 µM; EC50 (SARS-CoV-2; read-out: EC50 SARS2): 8 µM
Velpatasvir,1,1,–,–,–,6.2,0,5.6,0,–,–,–,OC43_mean (OC43 [1]; [8]): 18.0%; OC43_1: % staining of OC43 in screen repeat #1 (OC43 [1]; [9]): 26.0%; OC43_2: % staining of OC43 in screen repeat #2 (OC43 [1]; [10]): 10.0%; EC50 (OC43 [2]; [12]): 2 µM; EC50 (SARS-CoV-2; read-out: EC50 SARS2): > 10 µM
